Measurements as given in patent publication US7045298B2, “Method for identifying or screening agonist and antagonist to PPAR” (Tanabe Seiyaku Co., Ltd., priority 1997, dated 2006).

Assays:
[1] = target: T1, ligand-dependent interaction between PPARγ and CBP (Homo sapiens, UniProt P37231); test: Yeast two-hybrid detection of ligand-dependent interaction between PPARγ and CBP (β-galactosidase reporter); assay type: cell-based; conditions: for β-galactosidase activity (lacZ gene expression): yeast SFY526 containing both plasmids pGBT9-PPARγ2 and pGAD424-CBP, substance added at 10^−6M (FIG. 2A/3A), cultivation 4 to 5 hours; for concentration dependence of the increase in β-galactosidase activity: yeast containing both plasmids, varying concentrations of substance (FIG. 2B/3B)
T1 construct: expressed in transfected cells; host or cells: yeast cell strain SFY526 (Clontech), transformed with pGBT9-PPARγ2 and pGAD424-CBP
T1 sequence (P37231 182-505): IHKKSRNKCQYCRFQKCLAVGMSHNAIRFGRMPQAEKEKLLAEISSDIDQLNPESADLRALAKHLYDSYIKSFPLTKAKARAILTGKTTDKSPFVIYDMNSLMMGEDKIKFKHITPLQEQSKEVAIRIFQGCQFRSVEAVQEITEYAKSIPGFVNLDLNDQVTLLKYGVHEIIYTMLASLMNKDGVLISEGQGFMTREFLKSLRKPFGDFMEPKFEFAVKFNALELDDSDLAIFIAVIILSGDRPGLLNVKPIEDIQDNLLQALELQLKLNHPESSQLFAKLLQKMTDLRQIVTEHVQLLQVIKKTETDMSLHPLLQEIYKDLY
T1 sequence (P45481 1-464 partner): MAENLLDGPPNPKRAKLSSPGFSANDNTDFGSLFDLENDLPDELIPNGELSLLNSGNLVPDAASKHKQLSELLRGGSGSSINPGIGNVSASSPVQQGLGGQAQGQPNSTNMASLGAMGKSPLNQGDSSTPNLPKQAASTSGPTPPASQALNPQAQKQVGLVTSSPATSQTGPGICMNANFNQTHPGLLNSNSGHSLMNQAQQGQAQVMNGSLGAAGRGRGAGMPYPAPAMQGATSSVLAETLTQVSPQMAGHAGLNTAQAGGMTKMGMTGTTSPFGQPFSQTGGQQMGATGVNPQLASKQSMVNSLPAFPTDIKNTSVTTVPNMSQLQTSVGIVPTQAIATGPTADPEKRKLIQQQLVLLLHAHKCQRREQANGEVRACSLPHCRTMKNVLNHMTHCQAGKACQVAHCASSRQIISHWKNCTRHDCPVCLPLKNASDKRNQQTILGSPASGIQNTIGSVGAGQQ
Text: The 1574 base pair fragment containing PPARγ2 gene obtained in (1) above was cleaved at the XhoI recognition site designed at the terminus and the BamHI recognition site in the base sequence. The fragments obtained were inserted into the BamHI-SalI site of yeast expression vector pGBT9 (available from Clontech Co., vector for yeast two hybrid system) containing the gene of the DNA binding domain of transcription factor GAL4 (No. 1 to 147 amino acid residues of GAL4). As a result, plasmid pGBT9-PPARγ2 (FIG. 1A) for expressing a fused protein comprising the portion downstream of the No. 181 amino acid residue of human PPARγ2 (ligand binding domain) and the DNA binding domain of GAL4 was obtained. In FIG. 1A, GAL4 bd stands for a GAL4 DNA binding domain sequence, ^PADH1 stands for alcohol dehydrogenase gene promoter, ^TADH1 stands for an alcohol dehydrogenase gene terminator, Amp^r stands for an ampicillin resistant gene, ColE1 ori stands for a collicin E1 replication start point, and 2 μ ori stands for a 2 μ replication start point.
The 1411 base pair fragment containing CBP gene obtained in (1) above (N-terminal domain) was cleaved at the BamHI recognition site and BglII recognition site designed at the termini. The fragments obtained were inserted into the BamHI-BglII site of yeast expression vector pGAD424 (available from Clontech Co., vector for yeast two hybrid system) containing the gene of the transcriptional activation domain of GAL4 (No. 768 to 881 amino acid residues of GAL4). As a result, plasmid pGAD424-CBP (FIG. 1B) for expressing a fused protein comprising the portion of the No. 1 to 464 amino acid residues of mouse CBP (N-terminal domain) and the transcriptional activation domain of GAL4 was obtained. In FIG. 1B, GAL4 ad stands for GAL4 transcriptional activation domain sequence and others have the same meanings as in FIG. 1A.
Using yeast cell strain SFY526 (available from Clontech Co.), the fused protein expression plasmids pGBT9-PPARγ2 and pGAD424-CBP obtained in (2) and (3) above were introduced therein. The cell strain SFY526 (genotype was MATa, ura3-52, his3-200, ade2-101, lys2-801, trp1-901, leu2-3, 112, canr, gal4-542, gal80-538, URA3::GAL1-lacZ) had incorporated in the chromosome a fused gene of GAL1 and lacZ and is a cell strain having deletion mutation relative to GAL4 gene (Bartel et al., Bio Techniques, vol. 14, pp. 920–924, 1993). The transformation was performed by the lithium acetate method and incubated in a synthetic medium depleted of tryptophan and leucine which are selection markers for the respective plasmids to perform screening to obtain a transformant in which only one of the plasmids was introduced and a transformant in which the both plasmids were introduced.
The yeast transformant containing both of the plasmids pGBT9-PPARγ and pGAD424-CBP or the yeast transformant containing only one of the plasmids was cultivated in YPD medium (liquid medium). Upon cultivation, 15-deoxy-Δ^12,14-prostaglandin J2, which is a ligand of PPARγ2 in a living body, diluted with YPD medium was added (or not added). 15-deoxy-Δ^12,14-prostaglandin J2 (hereinafter abbreviated to as “15d-PGJ2”) used was commercially available (available from CAYMAN CHEMICALS, CO., U.S.A.). The cultivation was performed for 4 to 5 hours. After the cultivation, the yeast cells were recovered by centrifugation and β-galactosidase activity was measured. […]

KK-Ay mouse = conditions: Japanese Provisional Patent Publications No. 56675/1989 and No. 167225/1990; cited from earlier work

**Q.** Which results are given for O=C1NC(=O)C(Cc2ccc3oc(Cc4ccc5ccccc5c4)nc3c2)S1 (stereo not drawn) [T-174, 5-[[2-(2-naphthalenylmethyl)-5-benzoxazolyl]methyl]-2,4-thiazolidinedione]?
**A.** identification as agonist for PPARγ ([1]; conclusion from ligand-dependent PPARγ-CBP interaction in yeast two-hybrid system): identified as an agonist acting as a ligand to PPARγ; β-galactosidase activity (lacZ gene expression) [1]: an increase in β-galactosidase activity was observed only in the yeast containing both of the plasmids; concentration dependence of the increase in β-galactosidase activity [1]: dependent on the concentration of T-174; hypoglycemic effect (KK-Ay mouse): hypoglycemic effect

**Q.** With CCCCC/C=C/C=C1/C(=O)C=C[C@@H]1C/C=C\CCCC(=O)O [15d-PGJ2, 15-deoxy-Δ^12,14-prostaglandin J2] as the molecule, how does the “β-galactosidase activity (lacZ gene expression)” value [1] read?
**A.** an increase in β-galactosidase activity

**Q.** And the “concentration dependence of the increase in β-galactosidase activity” value [1]?
**A.** dependent on the concentration of 15d-PGJ2
